# Reference: patent US8999891B2, “Method for controlling weeds in turf” (Dow AgroSciences LLC, priority 2013, dated 2015)
# Legend:
# White Clover (TRFRE) = experiment: Greenhouse post-emergence weed control, visual percent control; type: in vivo, Trifolium repens; details: 1 week after treatment, florasulam 0.001 g ai/ha, fluroxypyr 0.01 g ae/ha, 2,4-D 0.11 g ae/ha, alone or in the mixture, 0 = no control, 100 = complete kill
# Text: Studies were applied post-emergence to broadleaf weeds reared from seed in 5″ square pots in 80% mineral/20% grit field soil. Stage of growth of species at application: EPHSU in the 3 to 5 leaf stage and TRFRE in the 3rd tri-foliate stage. Post-emergence trial design was a replicated block, one species per pot, 4 replicate pots per treatment. Post-emergence applications were made to the pot with a tracksprayer calibrated to 187 liters per hectare (L/ha), 40 pounds per square inch (PSI) at 1.9 miles per hour (mph) using an 8003E Teejet nozzle covering both soil and foliage. Trial was sub-irrigated daily. Active weed growth was maintained throughout the study period. Weed control of each species in the post-emergence study was assessed at 1, 2 and 3 weeks after treatment. Control was determined visually by comparing treated and untreated pots and scored on a 0 to 100 percent scale where 0 corresponds to no control and 100 corresponds to complete kill.
# In the foregoing examples, the following equation was used to calculate the expected activity of mixtures containing three herbicidal active ingredients:
# (§1) [formula] A=observed efficacy of a first active ingredient at the same concentration as used in the mixture. B=observed efficacy of a second active ingredient B at the same concentration as used in the mixture. C=observed efficacy of a third active ingredient C at the same concentration as used in the mixture. The following abbreviations are used in the tables: g ai/ha=grams active ingredient per hectare g ae/ha=grams acid equivalent per hectare DAA=days after application.
# Ground Ivy (GLEHE) = experiment: Field study in turf, average % weed control; type: in vivo, Glechoma hederacea
# Text: (§2) Replicated applications were made to small plots (i.e. 5′×5′, 3′×10′) using a CO2 backpack sprayer. Florasulam SC (EF-1343), fluoroxypyr (Starane® Ultra) and 2,4-D (DMA® 4) are produced by Dow AgroSciences LLC, Indianapolis, Ind. Applications at each site were made at typical postemergent herbicide timing for that particular study location. Applications were generally timed for peak dandelion bloom in the northern cool-season turf market and throughout the year in the warm-season turf market where winter and summer annual and perennial weeds are targeted. Weed control evaluations were made as percent weed cover per plot and converted to percent control based on weed levels in the untreated control. Evaluations were made at various timing after application for eight to ten weeks.
# as §1
# Dandelion (TAROF) = experiment: Field study in turf, average % weed control; type: in vivo, Taraxacum officinale; details: 55 DAA, florasulam 5.2 g ai/ha, fluroxypyr 52.9 g ae/ha, 2,4-D 520 g ae/ha, alone or in the mixture
# Text: as §2, §1
# White Cover (TRFRE) = experiment: Field study in turf, average % weed control; type: in vivo, Trifolium repens; details: 62 DAA, florasulam 5.2 g ai/ha, fluroxypyr 52.9 g ae/ha, 2,4-D 520 g ae/ha, alone or in the mixture
# Text: as §2, §1
# [1] = 28 DAA, florasulam 2.3 g ai/ha, fluroxypyr 26.5 g ae/ha, 2,4-D 260.6 g ae/ha alone (260.0 in the mixture)
# [2] = 56 DAA, florasulam 5.2 g ai/ha, fluroxypyr 52.9 g ae/ha, 2,4-D 520 g ae/ha, alone or in the mixture
SMILES,Observed percent control (White Clover (TRFRE)) [%],Observed Average % Weed Control (Ground Ivy (GLEHE); [1]) [%],Observed Average % Weed Control (Ground Ivy (GLEHE); [2]) [%],Observed Average % Weed Control (Dandelion (TAROF)) [%],Observed Average % Weed Control (White Cover (TRFRE)) [%]
"O=C(O)COc1ccc(Cl)cc1Cl [2,4-D, (2,4-dichlorophenoxy)acetic acid]",1.7,41.0,41.7,45.6,20.0
"COc1ncc(F)c2nc(S(=O)(=O)Nc3c(F)cccc3F)nn12 [Florasulam, 2′,6′,8-trifluoro-5-methoxy[1,2,4]triazolo[1,5-c]pyrimidine-2-sulfonanilide]",10.3,0.0,0.0,25.0,23.8
"Nc1c(Cl)c(F)nc(OCC(=O)O)c1Cl [Fluroxypyr, [(4-amino-3,5-dichloro-6-fluoro-2-pyridinyl)oxy]acetic acid]",35,0.0,0.0,14.3,31.3
